From US20180263945A1, “PYRUVATE COMPOUNDS FOR TREATMENT OF PERIPHERAL NEUROPATHY” (Research Institute at Nationwide Children's Hospital, priority 2014, published 2018)

Columns and labels:
[1] = test system: TrJ mice; experiment: Nerve conduction studies, AAV1.NT-3 and pyruvate combinatorial therapy (Example 2); format: in vivo; settings: 4 months of treatment, 4% SP in drinking water; control group decreased (P<0.05)
Experimental: FIG. 4 provides a bar graph showing the results of nerve conduction studies that were performed at baseline and endpoint following 4 months of treatment duration. […] (Error bars represent standard error of the mean. Student t test was performed).
Using the methods described below, nerve conduction studies were performed at the baseline and the endpoint, 4 months post-AAV1.NT-3 injection. During this period TrJ mice were given ad libitum access to drinking water containing 4% SP.
(§1) Nerve Conduction Studies: Sciatic motor nerve conduction studies were performed on mice under isoflurane anesthesia using a portable electrodiagnostic system (Synergy N2 EMG and nerve conduction study machine, Natus, Middleton, Wis.) as previously described. Yalvac et al., Mol Ther. 22(7):1353-63 (2014). Distance for electrode placement was measured using a compass with a needle edge and a millimeter-graduated tape measure. The sciatic motor nerve conduction responses were recorded using two fine ring electrodes (Alpine Biomed, Skovlunde, Denmark) used as the active (E1) and reference (E2) electrodes. The active recording electrode was placed over the mid portion of the gastrocnemius muscle and the reference electrode over the tendon. […] The parameters measured included compound muscle action potential (CMAP) amplitude, distal latency, and conduction velocity.

[2] = test system: TrJ mice; experiment: Motor function: grip strength test and four-limb wire hanging strength test (Example 2); format: in vivo; settings: endpoint, 4 months post injection; P<0.05
Experimental: Mice were tested for motor functions at the endpoint (4 months post injection) by performing grip strength test and four-limb wire hanging strength test. […] (Error bars represent standard error of the mean. Student t test was performed).
Wire Hang test: The mice were allowed to grasp by their four paws a 2-mm diameter metal wire maintained horizontally 35 cm above a thick layer of soft bedding (device made by the NCH Bioengineering Department according to the specifications of Klein et al.). […] The length of time until the mice fell from the wire was recorded. After each fall, the mice were allowed to recover for 1 minute. Each session consisted of three trials from which the scores were averaged.
Motor function testing Tr^J mice were tested for baseline motor function within 1 week prior to receiving i.m. injection of ssAAV1.CMV.NT-3 or PBS. Motor function tests included bilateral simultaneous hindlimb grip power and that of the left hind paw using a grip strength meter (Chatillon Digital Meter; Model DFIS-2; Columbus Instruments, Columbus, Ohio). Bilateral or unilateral grip strength was assessed by allowing the animals to grasp a platform followed by pulling the animal until it releases the platform; the force measurements were recorded in four separate trials. Measurements were performed on the same day and time of each week. […]

[3] = test system: Tr^J mice; experiment: Sciatic nerve conduction studies (Example 1); format: in vivo
Text: Additional studies were designed to assess the efficacy of pyruvate treatment using a quantitative test that has functional significance. […] Among the parameters obtained from these studies CMAP is a direct measure of the size of the motor unit. Results were compared to age-matched Tr^J-control cohort. Functional studies (hind limb grip strength, wire hanging test and rotorod) were done at baseline and at 7 to 10 day intervals.
as §1

[4] = test system: Tr^J mice; experiment: Functional studies: hind limb grip strength, wire hanging test (Example 1); format: in vivo; settings: at 16 weeks of treatment
Experimental: Additional studies were designed to assess the efficacy of pyruvate treatment using a quantitative test that has functional significance. Six Tr^J mice received SP in their drinking water and the sciatic nerve conduction studies were carried out at baseline and 16 weeks of SP supplementation. Among the parameters obtained from these studies CMAP is a direct measure of the size of the motor unit. Results were compared to age-matched Tr^J-control cohort. Functional studies (hind limb grip strength, wire hanging test and rotorod) were done at baseline and at 7 to 10 day intervals.
Wire Hang test: The mice were allowed to grasp by their four paws a 2-mm diameter metal wire maintained horizontally 35 cm above a thick layer of soft bedding (device made by the NCH Bioengineering Department according to the specifications of Klein et al.). Klein et al. J Neurosci Methods, 203:292-297 (2012). The length of time until the mice fell from the wire was recorded. After each fall, the mice were allowed to recover for 1 minute. […]
Motor function testing Tr^J mice were tested for baseline motor function within 1 week prior to receiving i.m. injection of ssAAV1.CMV.NT-3 or PBS. […] Bilateral or unilateral grip strength was assessed by allowing the animals to grasp a platform followed by pulling the animal until it releases the platform; the force measurements were recorded in four separate trials. […]

[5] = test system: Sciatic Nerves from Tr^J Mice; experiment: g ratio of the myelinated fibers, sciatic nerve crush/regeneration study (Example 1); format: in vivo; settings: for percent of fibers with G ratio less than 0.8: SP 4% in drinking water, 20 weeks; for percent of fibers within a G ratio range of 0.4-0.7: pyruvate group, control Tr^J 6.5%
Experimental: (§2) Six weeks old Tr^J mice (pmp22^Tr-J) were used in this study. A total of 8 Tr^J mice (mouse model for demyelinating CMT) were studied. Five received SP, 4% in drinking water, 3 mice left untreated to serve as control. All treatment protocols and animal surgeries were conducted under the protocols approved by the Nationwide Children's Hospital and The Ohio State University Animal Care and Use Committee. Animals were acclimatized by placing on 2.5% apple juice first, which was increased to 20% a week later. In one group (pyruvate group; n=5) sodium pyruvate (Sigma) was added to apple juice in 2.5% concentration and a week later increased to 4%. The pyruvate group remained 4% sodium pyruvate in 20% apple juice drinking water throughout the duration of the study. The control group (n=3) continued on 20% apple juice only. Drinking solutions were freshly prepared every other day.
Both groups underwent sciatic nerve crush procedure one week after starting on sodium pyruvate in apple juice or apple juice alone, providing the results shown in FIGS. 1 and 2. Under isoflurane anesthesia left sciatic nerves were exposed and crushed with a fine forceps at a level 5 mm distal to the sciatic notch to generate a regeneration paradigm as previously described. Sahenk et al., Exp Neurol 224, 495-506 (2010). The crush site was marked by a 10-0 nylon suture tie passed through the epineurium. Mice were then killed quickly by an over-dosage of xylazine/ketamine anesthesia and the sciatic nerves from crushed and intact sites were removed under a dissecting microscope. Approximately 2 mm in length tissue blocks immediately distal to the crush site and the subsequent three segments, all marked for proximo-distal orientation as well as the mid sciatic segments from the contralateral uncrushed nerves were processed for plastic embedding for light microscope thick sections and electron microscopy using standard methods established by the inventors.
The g ratio refers to the ratio of axonal diameter/fiber diameter and lower g ratios represent axons with thicker myelin. Beuche, W., and Friede, R. L., Acta Neuropathol 66, 29-36 (1985); Friede, R. L., and Beuche, W., J Neurol Neurosurg Psychiatry 48, 749-756 (1985). For each animal, measurements from all fibers in 3 randomly selected representative unit areas were included and the g ratio distribution histograms were generated as percent of total fibers analyzed as previously described. Measurements from regenerating and intact nerves were obtained in each group. One way ANOVA was used to determine statistical analysis.

[6] = test system: Sciatic Nerves from Tr^J Mice; experiment: Myelinated fiber density determinations, sciatic nerve crush/regeneration study (Example 1); format: in vivo; settings: 4% sodium pyruvate in drinking water, twenty weeks after crush
Experimental: as §2
Both groups underwent sciatic nerve crush procedure one week after starting on sodium pyruvate in apple juice or apple juice alone, providing the results shown in FIGS. 1 and 2. […]
Quantitative analysis at the light microscopic level was performed on 1 μm-thick toluidine blue stained cross sections from regenerating and intact uncrushed sciatic nerves from pyruvate and control groups. […] Unpaired t-test was calculated using graphPad Prism 6 program for comparison of the two sets of data.

[7] = test system: Sciatic Nerves from Tr^J Mice; experiment: Histopathology and myelinated fiber density, sciatic nerves at 16 weeks of treatment (Example 2); format: in vivo
[8] = test system: CMT1A patients; settings: previous studies of the inventors; cited from earlier work
[9] = test system: trembler^J (Tr^J) mouse; settings: previous studies of the inventors; cited from earlier work

In the case of `CC(=O)C(=O)[O-].[Na+]` [pyruvate, sodium pyruvate], the “CMAP amplitudes at the endpoint compared to the baseline” value [1] is reported as “preserved their CMAPs”, the “four-limb wire hanging strength test vs control group” value [2] is reported as “performed better than control group” and the “grip strength test vs control group” value [2] is reported as “performed better than control group”. For the same molecule, the “Trends for improvements in conduction velocities and distal latencies” value ([3]; Tr^J mice, pyruvate supplementation) was “not significant”, the “CMAP amplitude of the Tr^J sciatic nerves, baseline vs endpoint” value ([3]; pyruvate supplementation for 24 weeks, untreated controls deteriorated further) was “protected CMAP amplitude” and the “hind limb grip strength compared to the untreated Tr^J controls” value [4] was “significantly better”. For the same molecule, the “wire hanging test (WHT) compared to the untreated Tr^J controls” value [4] was “significantly better”, the “G ratios (axon diameter/fiber diameter) in comparison to the control Tr^J” value ([5]; intact and regenerating sciatic nerves, lower g ratio = thicker myelin) was “significantly reduced” and the “percent of fibers with G ratio less than 0.8” value ([5]; intact nerves, control 42%) was “about 53%”. The “percent of fibers within a G ratio range of 0.4-0.7” value ([5]; intact nerves) was “about 29%”, the “percent of fibers with G ratio less than 0.8” value ([5]; regenerating nerves, control 17%) was 43% and the “percent of fibers within a G ratio range of 0.4-0.7” value ([5]; regenerating nerves) was 22%. The “improving myelination during regeneration, more than that of the control group” value ([5]; regenerating nerves, pyruvate supplementation) was “about 27%”, the “Myelinated Fiber Density, Intact, mean ± SEM” value ([6]; intact (uncrushed) sciatic nerve, p = 0.0271 vs control) was 16583 ± 749 number/mm2 and the “Myelinated Fiber Density, Regenerating, mean ± SEM” value ([6]; regenerating (crushed) sciatic nerve, p = 0.0075 vs control) was 18259 ± 1051 number/mm2. For the same molecule, the “myelinated fibers and myelin thickness in toluidine blue stained sciatic nerve sections vs untreated” value ([7]; TrJ mice, 16 weeks of treatment) was “notable increase in myelinated fibers and increased myelin thickness” and the “Myelinated Fiber Density, mean ± SEM” value ([7]; sciatic nerves, Tr^J mice, treatment duration 16 wks) was 15000.2 ± 878.4 number/mm2.

B1: neurotrophin-3 (protein, UniProt P20783 139-257, looked up)
Neurotrophin-3: YAEHKSHRGEYSVCDSESLWVTDKSSAIDIRGHQVTVLGEIKTGNSPVKQYFYETRCKEARPVKNGCRGIDDKHWNSQCKTSQTYVRALTSENNKLVGWRWIRIDTSCVCALSRKIGRT
modifications: Neurotrophin-3
notes: neurotrophic agent neurotrophin-3
For B1, the “efficacy in CMT1A patients” value [8] is listed as “showed efficacy” and the “effect on trembler^J (Tr^J) mouse” value [9] is listed as “improved”.
